The text below walks through data of US5665704A, “Receptor specific atrial natriuretic peptides” (Genentech, Inc., priority 1995, dated 1997).

Experiment [1] deals with T1, hNPR-A (Homo sapiens, UniProt P16066).
T1 sequence (P16066 33-1061): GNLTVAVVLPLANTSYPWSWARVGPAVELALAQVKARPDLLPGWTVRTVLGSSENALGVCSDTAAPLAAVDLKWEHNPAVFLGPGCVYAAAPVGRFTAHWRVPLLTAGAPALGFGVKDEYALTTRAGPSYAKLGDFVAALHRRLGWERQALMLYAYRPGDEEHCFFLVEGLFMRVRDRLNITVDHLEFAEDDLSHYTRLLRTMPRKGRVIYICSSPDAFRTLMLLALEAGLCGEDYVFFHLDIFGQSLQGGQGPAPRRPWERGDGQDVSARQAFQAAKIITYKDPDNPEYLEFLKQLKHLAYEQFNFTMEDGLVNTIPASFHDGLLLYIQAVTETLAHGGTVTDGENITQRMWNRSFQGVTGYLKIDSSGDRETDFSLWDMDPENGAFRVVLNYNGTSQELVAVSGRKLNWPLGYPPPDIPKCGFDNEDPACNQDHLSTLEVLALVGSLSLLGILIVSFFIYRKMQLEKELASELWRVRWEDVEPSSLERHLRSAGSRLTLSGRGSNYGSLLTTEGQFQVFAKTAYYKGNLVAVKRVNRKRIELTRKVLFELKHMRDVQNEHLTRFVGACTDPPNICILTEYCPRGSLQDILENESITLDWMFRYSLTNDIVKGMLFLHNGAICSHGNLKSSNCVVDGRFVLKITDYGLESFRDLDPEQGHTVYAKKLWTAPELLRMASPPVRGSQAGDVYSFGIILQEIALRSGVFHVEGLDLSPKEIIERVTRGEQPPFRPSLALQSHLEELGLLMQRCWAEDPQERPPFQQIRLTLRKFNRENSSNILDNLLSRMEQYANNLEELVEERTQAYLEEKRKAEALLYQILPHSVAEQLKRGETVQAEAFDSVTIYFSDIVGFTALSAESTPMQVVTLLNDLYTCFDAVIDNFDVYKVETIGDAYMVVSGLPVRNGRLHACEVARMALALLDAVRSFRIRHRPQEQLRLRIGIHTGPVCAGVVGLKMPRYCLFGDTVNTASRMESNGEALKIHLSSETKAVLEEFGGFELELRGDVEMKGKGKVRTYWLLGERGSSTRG
The experiment in a line: Binding affinity for hNPR-A (competitive displacement of I^125 labeled wild-type ANF). The following applies: Table I; read-out: Binding Affinity IC50 (pM) hNPR-A.

For experiment [2], the target named is T2, hNPR-C (Homo sapiens, UniProt P17342).
T2 sequence (P17342 27-541): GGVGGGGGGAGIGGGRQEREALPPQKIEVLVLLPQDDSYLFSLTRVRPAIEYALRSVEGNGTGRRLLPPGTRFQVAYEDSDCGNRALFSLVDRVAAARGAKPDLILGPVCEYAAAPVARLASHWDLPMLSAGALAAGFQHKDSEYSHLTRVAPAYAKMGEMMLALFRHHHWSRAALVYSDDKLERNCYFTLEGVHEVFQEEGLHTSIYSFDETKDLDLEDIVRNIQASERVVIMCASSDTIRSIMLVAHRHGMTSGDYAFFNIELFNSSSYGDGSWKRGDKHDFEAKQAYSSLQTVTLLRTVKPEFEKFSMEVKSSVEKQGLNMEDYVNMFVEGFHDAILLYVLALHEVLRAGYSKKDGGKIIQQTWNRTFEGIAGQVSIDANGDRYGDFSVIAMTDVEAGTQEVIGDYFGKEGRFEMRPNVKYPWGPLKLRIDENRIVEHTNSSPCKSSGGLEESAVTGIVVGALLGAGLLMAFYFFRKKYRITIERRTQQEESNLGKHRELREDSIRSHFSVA
The experiment in a line: Binding affinity for clearance receptor hNPR-C. Conditions: Table I; read-out: Binding Affinity IC50 (pM) hNPR-C. The source says: For assay systems to measure binding of hANF and the compounds of this invention to hNPR-C see: Schank, D. B., et al., Biochem. Biophys. Res. Comm. 127:433-442 (1985); Scarborough, R. M., J. Biol. Chem. 261:12960-12964 and WO 90/01940.

Bridge positions count the residues as written; N and C are the ends. Square brackets hold non-standard residues; d marks the D form. Peptide text beside a SMILES is read from it. Cha = N[C@@H](CC1CCCCC1)C(=O)O; Mpa = O=C(O)CCS

For the molecule `CC[C@H](C)[C@@H]1NC(=O)[C@H](CCCNC(=N)N)NC(=O)[C@H](CC(=O)O)NC(=O)[C@H]([C@@H](C)CC)NC(=O)[C@H](CO)NC(=O)CNC(=O)[C@H]([C@@H](C)O)NC(=O)[C@H](Cc2ccccc2)NC(=O)[C@@H](CO)NC(=O)[C@@H](NC(=O)[C@H](CO)NC(=O)[C@H](CO)NC(=O)[C@H](CCCNC(=N)N)NC(=O)[C@H](CCCNC(=N)N)NC(=O)[C@H](CC(C)C)NC(=O)[C@@H](N)CO)CSSC[C@@H](C(=O)N[C@@H](CC(N)=O)C(=O)N[C@@H](CO)C(=O)N[C@@H](Cc2ccccc2)C(=O)N[C@@H](CCCNC(=N)N)C(=O)N[C@@H](Cc2ccc(O)cc2)C(=O)O)NC(=O)CNC(=O)[C@H](CC(C)C)NC(=O)CNC(=O)[C@H](CO)NC(=O)[C@H](CCC(N)=O)NC(=O)[C@H](C)NC(=O)[C@H](CCCNC(=N)N)NC1=O` [ANF74] (H-SLRRSSC[dS]FTGSIDRIRAQSGLGCNSFRY-OH; disulfide 7-24), the IC50 (commonly the point on the concentration scale where inhibition reaches its midpoint) in experiment [1] was 29400 pM; in experiment [2] it was 1e+07 pM.

Regarding `CC[C@H](C)[C@@H]1NC(=O)[C@H](CCCNC(=N)N)NC(=O)[C@H](CC(=O)O)NC(=O)[C@H]([C@@H](C)CC)NC(=O)[C@H](CO)NC(=O)CNC(=O)[C@H]([C@@H](C)O)NC(=O)[C@H](Cc2ccccc2)NC(=O)[C@@H](C)NC(=O)[C@@H](NC(=O)[C@H](CO)NC(=O)[C@H](CO)NC(=O)[C@H](CCCNC(=N)N)NC(=O)[C@H](CCCNC(=N)N)NC(=O)[C@H](CC(C)C)NC(=O)[C@@H](N)CO)CSSC[C@@H](C(=O)N[C@@H](CC(N)=O)C(=O)N[C@@H](CO)C(=O)N[C@@H](Cc2ccccc2)C(=O)N[C@@H](CCCNC(=N)N)C(=O)N[C@@H](Cc2ccc(O)cc2)C(=O)O)NC(=O)CNC(=O)[C@H](CC(C)C)NC(=O)CNC(=O)[C@H](CO)NC(=O)[C@H](CCC(N)=O)NC(=O)[C@H](C)NC(=O)[C@H](CCCNC(=N)N)NC1=O` [ANF75] (H-SLRRSSC[dA]FTGSIDRIRAQSGLGCNSFRY-OH; disulfide 7-24), the values for the IC50 in experiment [1] and in experiment [2] were 2080 pM and 2e+06 pM, respectively.

On to `CC[C@H](C)[C@@H]1NC(=O)[C@H](CCCNC(=N)N)NC(=O)[C@H](CC(=O)O)NC(=O)[C@H]([C@@H](C)CC)NC(=O)[C@H](CO)NC(=O)CNC(=O)[C@H]([C@@H](C)O)NC(=O)[C@H](CC2CCCCC2)NC(=O)[C@@H](NC(=O)[C@H](CO)NC(=O)[C@H](CO)NC(=O)[C@H](CCCNC(=N)N)NC(=O)[C@H](CCCNC(=N)N)NC(=O)[C@H](CC(C)C)NC(=O)[C@@H](N)CO)CSSC[C@@H](C(=O)N[C@@H](CC(N)=O)C(=O)N[C@@H](CO)C(=O)N[C@@H](Cc2ccccc2)C(=O)N[C@@H](CCCNC(=N)N)C(=O)N[C@@H](Cc2ccc(O)cc2)C(=O)O)NC(=O)CNC(=O)[C@H](CC(C)C)NC(=O)CNC(=O)[C@H](CO)NC(=O)[C@H](CCC(N)=O)NC(=O)[C@H](C)NC(=O)[C@H](CCCNC(=N)N)NC1=O` [ANF79] (H-SLRRSSC[Cha]TGSIDRIRAQSGLGCNSFRY-OH; disulfide 7-23), for which the figures for the concentration for half-maximal inhibition (IC50) in experiment [1] and in experiment [2] were 2.4 pM and 1.48e+06 pM, respectively.

For `CC[C@H](C)[C@@H]1NC(=O)[C@H](CCCNC(=N)N)NC(=O)[C@H](CC(=O)O)NC(=O)[C@H]([C@@H](C)CC)NC(=O)[C@H](CO)NC(=O)CNC(=O)[C@@H]([C@H](C)O)NC(=O)[C@H](Cc2ccccc2)NC(=O)CCSSC[C@@H](C(=O)N[C@@H](CC(N)=O)C(=O)N[C@@H](CO)C(=O)N[C@@H](Cc2ccccc2)C(=O)N[C@@H](CCCNC(=N)N)C(=O)N[C@@H](Cc2ccc(O)cc2)C(=O)O)NC(=O)CNC(=O)[C@H](CC(C)C)NC(=O)CNC(=O)[C@H](CO)NC(=O)[C@H](CCC(N)=O)NC(=O)[C@H](C)NC(=O)[C@H](CCCNC(=N)N)NC1=O` [ANF80] ([Mpa]F[dT]GSIDRIRAQSGLGCNSFRY-OH; disulfide 1-17), the figures for the 50% inhibitory concentration (IC50) in experiment [1] and in experiment [2] were 423 pM and 739000 pM, respectively.

Turning to `CC[C@H](C)[C@@H]1NC(=O)[C@H](CCCNC(=N)N)NC(=O)[C@H](CC(=O)O)NC(=O)[C@H]([C@@H](C)CC)NC(=O)[C@H](CO)NC(=O)CNC(=O)[C@@H](C)NC(=O)[C@H](Cc2ccccc2)NC(=O)CCSSC[C@@H](C(=O)N[C@@H](CC(N)=O)C(=O)N[C@@H](CO)C(=O)N[C@@H](Cc2ccccc2)C(=O)N[C@@H](CCCNC(=N)N)C(=O)N[C@@H](Cc2ccc(O)cc2)C(=O)O)NC(=O)CNC(=O)[C@H](CC(C)C)NC(=O)CNC(=O)[C@H](CO)NC(=O)[C@H](CCC(N)=O)NC(=O)[C@H](C)NC(=O)[C@H](CCCNC(=N)N)NC1=O` [ANF81] ([Mpa]F[dA]GSIDRIRAQSGLGCNSFRY-OH; disulfide 1-17), the results for the IC50 in experiment [1] and in experiment [2] were 1400 pM and 3.86e+06 pM, respectively.

Take `CC[C@H](C)[C@@H]1NC(=O)[C@H](CCCNC(=N)N)NC(=O)[C@H](CC(=O)O)NC(=O)[C@H]([C@@H](C)CC)NC(=O)[C@H](CO)NC(=O)CNC(=O)[C@H]([C@@H](C)O)NC(=O)[C@H](Cc2ccccc2)N(C)C(=O)[C@@H](NC(=O)[C@H](CO)NC(=O)[C@H](CO)NC(=O)[C@H](CCCNC(=N)N)NC(=O)[C@H](CCCNC(=N)N)NC(=O)[C@H](CC(C)C)NC(=O)[C@@H](N)CO)CSSC[C@@H](C(=O)N[C@@H](CC(N)=O)C(=O)N[C@@H](CO)C(=O)N[C@@H](Cc2ccccc2)C(=O)N[C@@H](CCCNC(=N)N)C(=O)N[C@@H](Cc2ccc(O)cc2)C(=O)O)NC(=O)CNC(=O)[C@H](CC(C)C)NC(=O)CNC(=O)[C@H](CO)NC(=O)[C@H](CCC(N)=O)NC(=O)[C@H](C)NC(=O)[C@H](CCCNC(=N)N)NC1=O` [ANF83]: the results for the IC50 in experiment [1] and in experiment [2] were 16 pM and 3.44e+06 pM, respectively.

For the molecule `CC[C@H](C)[C@@H]1NC(=O)[C@H](CCCNC(=N)N)NC(=O)[C@H](CC(=O)O)NC(=O)[C@H]([C@@H](C)CC)NC(=O)[C@H](CO)NC(=O)CNC(=O)[C@H]([C@@H](C)O)NC(=O)[C@H](Cc2ccccc2)NC[C@@H](NC(=O)[C@H](CO)NC(=O)[C@H](CO)NC(=O)[C@H](CCCNC(=N)N)NC(=O)[C@H](CCCNC(=N)N)NC(=O)[C@H](CC(C)C)NC(=O)[C@@H](N)CO)CSSC[C@@H](C(=O)N[C@@H](CC(N)=O)C(=O)N[C@@H](CO)C(=O)N[C@@H](Cc2ccccc2)C(=O)N[C@@H](CCCNC(=N)N)C(=O)N[C@@H](Cc2ccc(O)cc2)C(=O)O)NC(=O)CNC(=O)[C@H](CC(C)C)NC(=O)CNC(=O)[C@H](CO)NC(=O)[C@H](CCC(N)=O)NC(=O)[C@H](C)NC(=O)[C@H](CCCNC(=N)N)NC1=O` [ANF84], the IC50 is 21 pM in experiment [1] and 1.9e+07 pM in experiment [2].

Regarding `CC[C@H](C)[C@@H]1NC(=O)[C@H](CCCNC(=N)N)NC(=O)[C@H](CC(=O)O)NC(=O)[C@H]([C@@H](C)CC)NC(=O)[C@H](CC(=O)O)NC(=O)CNC(=O)[C@@H](C)NC(=O)[C@H](Cc2ccccc2)NC(=O)[C@@H](NC(=O)[C@H](CO)NC(=O)[C@H](CO)NC(=O)[C@H](CCCNC(=N)N)NC(=O)[C@H](CCCNC(=N)N)NC(=O)[C@H](CC(C)C)NC(=O)[C@@H](N)CO)CSSC[C@@H](C(=O)N[C@@H](CC(N)=O)C(=O)N[C@@H](CO)C(=O)N[C@@H](Cc2ccccc2)C(=O)N[C@@H](CCCNC(=N)N)C(=O)N[C@@H](Cc2ccc(O)cc2)C(=O)O)NC(=O)CNC(=O)[C@H](CC(C)C)NC(=O)CNC(=O)[C@H](CO)NC(=O)[C@H](CCC(N)=O)NC(=O)[C@H](C)NC(=O)[C@H](CCCNC(=N)N)NC1=O` [ANF90] (H-SLRRSSCF[dA]GDIDRIRAQSGLGCNSFRY-OH; disulfide 7-23), the IC50 in experiment [1] was 1200 pM; in experiment [2], 6.14e+06 pM.
